Patent US9260382B2, “Methods of reducing virulence in bacteria” (priority 2010, dated 2016)

Key:
[1] = system: mrp promoter (reference gene); test: GFP reporter plasmid pmrp, flow cytometry (reference gene); format: cell-based, Dickeya dadantii 3937; settings: for mean fluorescence intensity of GFP, mrp promoter: 3937 (pmrp), MM + 100 μM
Protocol: FACS analysis of promoter activity of dspE, hrpA, hrpL, hrpN, and hrpS was carried out as described (Peng et al., 2006). Briefly, the wild-type Ech3937 and the mutant strains carrying the promoter reporter plasmid were grown on LB broth at 28° C. overnight and transferred to appropriate media. For FACS analysis, samples were collected by centrifugation, washed with 1× phosphate buffer saline (PBS) at 13,000 rpm for 1 min, and re-suspended in 1×PBS to ca 10^6 CFU/ml prior to being run in a FACS Calibur flow cytometer (BD Biosciences, CA). Three replicates were performed for each treatment.
Since OCA and TCA induced the expression of hrpN, the effect of these two phenolic compounds on the expression of hrpA, hrpL, and hrpS was investigated further. […] GFP intensity was determined on gated populations of bacterial cells by flow cytometry and analyzed with the Cell Quest software (BD Biosciences, San Jose, Calif.). The lines labeled “1” stand for the GFP expression control base level of the Ech3937 containing pPROBE-AT vector; lines labeled “2” stand for the promoter activity of hrpS, hrpL, hrpA and hrpN in Ech3937 in MM; lines labeled “3” stand for the promoter activity of Ech3937 in MM supplemented with 0.1 mM OCA; lines labeled “4” stand for the promoter activity of hrpL mutant WPP96 in MM; lines labeled “5” stand for the promoter activity of hrpL mutant WPP96 in MM supplemented with 0.1 mM OCA. Values are representative of at least two experiments. […] Compared with MM alone, the average GFP fluorescence intensity of bacterial cells of Ech3937 (phrpA) was doubled when 0.1 mM of OCA and TCA were added to the medium (Table 4; FIG. 3). […] The mrp, whose protein product has an ATPase conserved domain (2e-06), was used as a reference gene in this study.

hrpS mRNA = test: qRT-PCR relative mRNA level of hrpS; format: cell-based, Dickeya dadantii 3937; settings: 0.1 mM in MM
Protocol: (§1) Bacterial strains were grown in MM. Total RNA from the bacterial cells was isolated by using the TRI reagent method (Sigma, Mo.) and treated with Turbo DNA-free DNase kits (Ambion, Tex.) as described (Peng et al., 2006). An iScript cDNA Synthesis Kit (Bio-Rad, CA) was used to synthesize cDNA from 0.5 μg of treated total RNA. The Real Master Mix (Eppendorf, Westbury, N.Y.) was used for qRT-PCR reaction to quantify the cDNA level of target genes in different samples. The rplU was used as the endogenous control for data analysis. qRT-PCR data were analyzed using Relative Expression Software Tool as described (Pfaffl, M. W., Horgan, G. W., and Dempfle, L. (2002) Relative expression software tool (REST) for group-wise comparison and statistical analysis of relative expression results in real-time PCR. Nucleic Acids Res 30:e36.).

[2] = system: Pseudomonas syringae pv. tomato DC3000; test: DC3000 bacterial growth, colony counts; format: cell-based; settings: 6 h and 9 h
Protocol: To determine the maximum concentration of TCA that will inhibit hrpA promoter activity without affecting bacterial growth, DC3000 carrying phrpA was cultured in HIM and HIM supplemented with 25 μM, 50 μM, 100 μM, 250 μM, or 500 μM of TCA. Promoter activity was measured at 6 h and 9 h as mentioned above using flow cytometry. Bacterial growth was determined by withdrawing samples of each culture and spot-plating serial dilutions onto King's B agar (King et al. 1954) in tandem with promoter activity assays. Colonies were counted after 48 h of incubation at 28° C.

HrpW protein = test: HrpW immunoblot analysis; format: cell-based, Pseudomonas syringae pv. tomato DC3000; settings: HIM supplemented with 250 μM
Protocol: The HrpW protein level was determined by immunoblot using anti-HrpW antibody provided by Dr. Alan Collmer (Cornell University, Ithaca, N.Y.). Sample preparation was performed as previously described with modifications (Yuan and He 1996). Wild-type DC3000 was grown overnight in King's B medium at 28° C. The culture was washed with hrp-inducing medium (HIM) and resuspended in 40 ml of the same medium to an optical density (OD) at 600 nm of 0.1. To determine the effect of TCA on the HrpW protein level, TCA dissolved in DMSO was added to the culture at the final concentration of 250 μM and the culture was grown with moderate shaking at 28° C. DMSO was added to a separate culture as a negative control. After 9 h, the cells were collected by centrifugation at 4,000×g for 10 min and resuspended in 1 ml of phosphate buffered saline (PBS; 137 mM NaCl, 2.7 mM KCl, 4.3 mM Na2HPO4, and 1.47 mM KH2PO4 [pH 7.4]). […]

hrpW mRNA = test: Real-time PCR of hrpW in DC3000; format: cell-based, Pseudomonas syringae pv. tomato DC3000; settings: HIM supplemented with 250 μM, 9 h
Protocol: DC3000 was cultured in KB medium overnight at 28° C. and subcultured in HIM medium supplemented with DMSO or with 250 μM TCA for 9 h. Total bacterial RNA was isolated using RNeasy Mini Kit (QIAGEN, Valencia, Calif.) and treated with Turbo DNA-free DNase kit (Ambion, Austin, Tex.). cDNA was synthesized using iScript cDNA Synthesis Kit (Bio-Rad, Hercules, Calif.) from 0.8 μg of total RNA. The Real Master Mix SYBR ROX (5 PRIME, Gaithersburg, Md.) was used for real-time PCR reactions to quantify the cDNA level of target genes in different samples. Data were collected by the Opticon 2 system (Bio-Rad) and analyzed using Relative Expression Software Tool as described by Pfaffl and associates (Pfaffl et al. 2002). Two housekeeping genes, gyrA (PSPTO1745) and gap1 (PSPTO1287) were used as endogenous controls for data analysis. The PCR efficiencies of the primers are: gyrA, 1.93; gap1, 2.08; and hrpW, 1.93.

hrpL mRNA = test: qRT-PCR relative mRNA level of hrpL; format: cell-based, Dickeya dadantii 3937; settings: MM supplemented with 0.1 mM
Protocol: as §1

Compound: O=C(/C=C/c1ccc(O)cc1)NO [Compound 103, trans-4-Hydroxycinnamohydroxamic acid]
- mean fluorescence intensity of GFP, mrp promoter ([1]; 12 h): 81.2 ± 0.7
- mean fluorescence intensity of GFP, mrp promoter ([1]; 24 h): 67.7 ± 2.5

Compound: O=C(O)/C=C/c1ccccc1O [Compound 006, Ortho-coumaric acid]
- hrpS mRNA compared with MM alone, in words (hrpS mRNA): No significant difference

Compound: O=C(O)/C=C/c1ccccc1 [Compound 001, trans-cinnamic acid]
- colony counts of DC3000 vs control culture, in words ([2]; HIM + 500 μM): slightly lower
- effect on growth of DC3000, in words ([2]; HIM, at or below concentrations of 250 μM): does not significantly inhibit nor enhance growth
- HrpW protein in culture supernatants, immunoblot, in words (HrpW protein): absent from the culture supernatants
- HrpW protein in whole cell lysates, immunoblot, in words (HrpW protein): undetectable in the whole cell lysates
- GFP Mean Fluorescence Intensity, mrp promoter (reference gene) ([1]; Ech3937 (pmrp), MM + 0.1 mM compound, 12 h): 105 ± 0.3
- hrpW mRNA relative expression ratio vs HIM alone (hrpW mRNA): 0.07

Compound: O=C(O)/C=C/c1ccc(O)cc1 [Compound 004, para-coumaric acid]
- hrpL mRNA relative expression ratio (MM alone normalized to 1) (hrpL mRNA): 0.039
